Measured values taken from US11980625B2, “Ganaxolone for use in treating tuberous sclerosis complex” (Marinus Pharmaceuticals, Inc., priority 2019, dated 2024).

What was measured:
[1] = Solubility of ganaxolone; format: physicochemical
Protocol: Ganaxolone is insoluble in water. Its solubilities in 95% alcohol, propylene glycol and polyethylene glycol are 13 mg/mL, 3.5 mg/mL and 3.1 mg/mL, respectively.
The pregnenolone neurosteroid (e.g., ganaxolone) formulations suitable may also be administered parenterally. In such embodiments, the formulations are suitable for intramuscular, subcutaneous, or intravenous injection may comprise physiologically acceptable sterile aqueous or non-aqueous solutions, dispersions, suspensions or emulsions, and sterile powders for reconstitution into sterile injectable solutions or dispersions. Examples of suitable aqueous and non-aqueous carriers, diluents, solvents, or vehicles including water, ethanol, polyols (propylene glycol, polyethylene-glycol, glycerol, cremophor and the like), suitable mixtures thereof, vegetable oils (such as olive oil) and injectable organic esters such as ethyl oleate. Additionally, Ganaxolone can be dissolved at concentrations of >1 mg/ml using water soluble beta cyclodextrins (e.g. beta-sulfobutyl-cyclodextrin and 2-hydroxypropylbetacyclodextrin). A particularly suitable cyclodextrin is a substituted-β-cyclodextrin is Captisol®. Proper fluidity can be maintained, for example, by the use of a coating such as lecithin, by the maintenance of the required particle size in the case of dispersions, and by the use of surfactants. […]

[2] = system: rats; experiment: 6-month study in rats; format: in vivo; conditions: more pronounced in females, correlated to increased liver weights and hepatocellular hypertrophy
[3] = system: dogs; experiment: Cardiovascular parameters in dogs after a single dose; format: in vivo; conditions: single dose of up to 15 mg/kg
[4] = system: patients with CDKL5 deficiency disorder (CDD); experiment: Preliminary PK/PD analysis of phase 3 trial in CDKL5 deficiency disorder (CDD); format: in vivo, human
Text: Global, randomized, double-blind, placebo-controlled phase 3 clinical trial to assess the safety and efficacy of adjunctive ganaxolone for the treatment of seizures associated with CDD. Patients aged 2 to 21 years with a pathogenic or likely pathogenic mutation of the CDKL5 gene, neurodevelopmental impairment, and seizures refractory to treatment with at least 2 prior antiseizure medications who experienced at least 16 seizures per 28 days during the 2 months prior to screening were eligible to enroll. Study consisted of a 6-week baseline followed by a 17-week double-blind phase (ganaxolone or placebo, 1:1). The dose of ganaxolone 50 mg/mL suspension was titrated over 4 weeks to 63 mg/kg/day (21 mg/kg TID), not to exceed 1800 mg/d (600 mg TID), or to the maximum tolerated dose. Blood draws for PK analysis were scheduled to occur at visit 3 (week 5), visit 4 (week 9), and visit 5 (week 17).
Mean ganaxolone concentration was calculated for each subject using available results from up to three laboratory determinations during the double-blind phase. Linear regression was conducted using arithmetic- and natural logarithm-transformed percent reduction in major motor seizures (loge [percent reduction+100]) as dependent variable and natural logarithm-transformed mean ganaxolone concentration as the single explanatory variable. Regression diagnostics included examination of residual and normal probability plots and determination of outliers and influential values. Cases with standardized residuals >2 or <−2 were excluded from the model and the regression was repeated.
The resulting sample was utilized in determination of a Pearson correlation coefficient (using log-transformed values). Additionally, percent seizure reduction was compared in three tertiles representing low (N=13), medium (N=13) and high (N=12) mean per subject ganaxolone concentrations using a Kruskal-Wallis test.

[5] = system: dogs; experiment: 1-year (chronic oral) dog toxicity study; format: in vivo
Text: There was a physiologically normal shortening of the PR and QT interval in response to the higher heart rate. There was no effect on QRS duration or QTc interval.

[6] = system: cytochrome P450 (CYP) isoenzymes 1A1/2 and 2B1/2; experiment: Induction of CYP isoenzymes in rats; format: in vivo; conditions: female versus male rats
[7] = system: subject with tuberous-sclerosis complex; experiment: Open-label Phase 2 trial of adjunctive ganaxolone in TSC-related epilepsy, Part A; format: in vivo, human
Protocol: A Phase 2 clinical study of ganaxolone in TSC-related epilepsy is conducted. Approximately 30 male and/or female patients aged 2 through 65 years, inclusive, with TSC-related epilepsy are screened and enrolled. The patients have a confirmed clinical diagnosis of TSC and a mutation in either the TSC1 or TSC2 gene. Patients complete a daily diary of ganaxolone effect on seizures.
The treatment phase includes 2 parts: Part A and Part B. In Part A, patients receive ganaxolone for a total of 12 weeks (4-week titration, 8 weeks maintenance) in addition to their standard anti-seizure treatment. Patients are titrated to 63 mg/kg/day (max 1800 mg/day) over 4 weeks, and then maintained at that dose for another 8 weeks. Ganaxolone is administered in increments of 15 mg/kg/day up to 63 mg/kg/day given as an oral suspension with food. Patients ≤28 kg are dosed on an mg/kg basis. Patients >28 kg are dosed on a fixed regimen in increments of 450 mg/day up to 1800 mg/day. Ganaxolone is administered during the 4-week titration period as follows: […]

CC(=O)[C@H]1CC[C@H]2[C@@H]3CC[C@H]4C[C@](C)(O)CC[C@]4(C)[C@H]3CC[C@]12C [Ganaxolone, 3α-hydroxy-3β-methyl-5α-pregnan-20-one]
solubility ([1]; aqueous with cosolvent or surfactant or cyclodextrin, beta-sulfobutyl-cyclodextrin, 2-hydroxypropylbetacyclodextrin, read-out: concentration dissolved using water soluble beta cyclodextrins): > 1000 µg/mL
solubility in water ([1]; water): insoluble
hepatic findings [2]: induced hepatic enzymes
area under the concentration time curve (AUC)(0-24) [3]: 10000 n·gh/mL
effect on cardiovascular parameters [3]: no effect
Mean percentage change in major motor seizures (per 28 days) ([4]; High tertile (n = 12)): −44.3%
Median percentage change in major motor seizures (per 28 days) ([4]; High tertile (n = 12)): −46.0%
Mean percentage change in major motor seizures (per 28 days) ([4]; Low tertile (n = 13)): −6.5%
Median percentage change in major motor seizures (per 28 days) ([4]; Low tertile (n = 13)): −8.4%
Mean percentage change in major motor seizures (per 28 days) ([4]; Median tertile (n = 13)): −30.3%
Median percentage change in major motor seizures (per 28 days) ([4]; Median tertile (n = 13)): −39.5%
seizure reduction predicted at a plasma concentration of approximately 100 ng/mL ([4]; back-transformation of log values, CDD participants): approximately 40%
plasma ganaxolone level (mean+standard deviation) ([4]; forty-four participants, 50 mg/mL suspension titrated to 63 mg/kg/day (max 1800 mg/d) TID): 103.5+79.2 ng/mL
effect on QRS duration or QTc ([5]; 1-year dog toxicity study): no treatment effect
findings associated with mean Cmax greater than 1500 ng/mL ([5]; 10 and 15 mg/kg/day): increased weight and total plasma cholesterol levels
heart rate finding (>190 beats per minute) ([5]; after 3 months of dosing in 4 animals, with decreased PR and QT interval): transient sinus tachycardia
induction of CYP isoenzymes [6]: induces major cytochrome P450 (CYP) isoenzymes 1A1/2 and 2B1/2 in female rats but not males
reduction in seizure relative to baseline ([7]; subject 001, oral three times a day, maximum 1800 mg daily, 11 weeks (78 days), baseline 132.41 per 28 days): 64%
% Change from baseline ([7]; subject 001, treatment duration 78 days, baseline seizure frequency 132.41 per 28 days): −64%
